Test results: patent US9274101B2 (BIOLOG, Inc., priority 2001, dated 2016)
Entries after “also recorded” stand apart in the source; their conditions may differ.

What was measured:
Assay type in all cases: cell-based, human
[1] = test system: DMSO-differentiated HL-60 cells; experiment: Energy use by DMSO-differentiated HL-60 cells; conditions: for activity at 30 µM / activity at 100 µM / activity at 330 µM / activity at 1000 µM / activity at 3300 µM / activity at 10000 µM / activity at 15000 µM / activity at 20000 µM: Homo sapiens, HL-60, 24 h, read-out: Energy Use by DMSO-Differentiated HL-60 Cells
Method: In this Example, methods for testing in vitro-differentiated cells for their ability to use multiple energy sources are described. Prior to differentiation, HL-60 cells were cultured as described in Example 27. DMSO-induced differentiation (Odani et al., Res. Commun. Mol. Pathol. Pharmacol. 108:381-391 [2000]; and Yamaguchi et al., Biol. Pharm. Bull. 20:943-947 [1997]) was accomplished by incubation of the cells in the presence of 1.25% DMSO for 3 days.
After washing, HL-60 cells were resuspended in DME-R. An aliquot of the cell suspension was counted by trypan blue exclusion and the cell density was adjusted to 6.67×10^5/mL. Fifty μL of DME-R were added to each well of the appropriate number of half area, 96-well plates, followed by 25 μL of the appropriate dilution of each test energy source. Stocks of 133 mM of each test chemical were prepared in tissue culture grade water, sterile filtered, and dilutions were prepared in a master plate so that, upon dilution into a half-area 96-well microtiter plate to a total well volume of 150 μL, the final concentrations would be 0.033 to 20 mM. Negative control wells received 25 μL of tissue culture grade water. The cells were plated at a volume of 75 μL/well, giving a final cell density of 5×10^4/well. For each plate containing energy sources and cells, a second, control plate containing only energy sources was prepared with the same total volume of liquid (148 μL/well). Plates were incubated at 5% CO2, 90-100% humidity, and 37° C. for 24 hours prior to addition of the MTS/MPMS calorimetric reagent (7.5 μL/well). The color formed in each well 24 hours after addition of the colorimetric reagent, was measured with a plate reader at 490 nm with a reference wavelength of 650 nm. OD values from the control plate were subtracted from the OD values obtained with cells prior to normalizing the data to % negative control (cells without added energy source).

HepG2 cells = HepG2 cells on flat bottom plastic wells, energy sources at a range of concentrations; conditions: for activity at 30 µM / activity at 100 µM / activity at 330 µM / activity at 1000 µM / activity at 3300 µM / activity at 10000 µM / activity at 15000 µM / activity at 20000 µM: Homo sapiens, HepG2, 72 h, read-out: HepG2 Cells Responses After 72 hours in Culture and a 4 hour Color Development Period
Method: In this Example, methods for testing adherent cells for their ability to use multiple carbon sources are described. The human hepatocellular carcinoma cell line known as HepG2 (Knowles et al., Science, 209:497-499 [1980]) was chosen for this experiment. However, this application is not intended to be limited to the use of HepG2 cells, hepatocytes, carcinoma cells or even human cells.
HepG2 cells were grown in Falcon tissue culture flasks with vented tops. The culture medium used was Minimal Essential medium (MEM, Invitrogen 11095) with 1 g/L glucose, 2 mM L-glutamine, 2.2 g/L sodium bicarbonate, 10 mg/L phenol red, and supplemented with 0.1 mM Nonessential Amino Acids, 1 mM sodium pyruvate, 50 U/mL penicillin, 50 μg/mL streptomycin, and 10% (v/v) heat inactivated fetal bovine serum (HI FBS, Invitrogen 16140). The cells were seeded at 2×10^4/cm^2 and used 3 days after initiation of culture. During all incubations, the cells were kept in an atmosphere of 5% CO2, 90-100% humidity, and 37° C. Cells were harvested by trypsinization for 3 minutes in 0.25% trypsin-1 mM EDTA and resuspended in an equal volume of culture medium. A viable cell count was obtained by trypan blue exclusion and an appropriate volume of the cell suspension (to have 33% more viable cells than was sufficient for the experiment) was placed in a polypropylene centrifuge tube. Cells were pelleted by centrifugation at 350×g for 10 minutes at room temperature, resuspended in Dulbecco's Phosphate Buffered Saline (D-PBS, Invitrogen 14040) and centrifuged a second time. Cells were then resuspended to two-thirds the final volume needed in Dulbecco' ? s Modified Eagle's Medium (DME, Sigma D5030) containing 10% HI FBS and penicillin-streptomycin but without glucose, L-glutamine, sodium pyruvate, and phenol red. An aliquot was counted by trypan blue exclusion and the cell density was adjusted to 1.28×10^5/mL. Cells were plated in 100 μL/well in wells of standard, 96-well plates (4×10^4 cells/cm^2) and allowed to adhere overnight prior to addition of test chemicals.
For assay, the culture medium was aspirated, the wells were washed once with D-PBS and 170 μL of DME were added to each well, followed by 30 μL of the appropriate dilution of each test energy source. Stocks of 133 mM of each test chemical were prepared in tissue culture grade water, sterile filtered, and dilutions were prepared in a master plate so that, upon dilution into a regular 96-well MICROPLATE a total well volume of 200 μL, the final concentrations would be 0.033 to 20 mM. Negative control wells received 30 μL of tissue culture grade water. For each plate containing energy sources and cells, a second, control plate containing only energy sources was prepared. Plates were incubated at 5% CO2, 90-100% humidity, and 37° C. for 48 to 72 hours prior to addition of the MTS/PMS colorometric reagent (10 μL/well). The color formed in each well 4-24 hours after addition of the calorimetric reagent, was measured with a plate reader at 490 nm with a reference wavelength of 650 nm. OD values from the control plate were subtracted from the OD values obtained with cells prior to normalizing the data to % negative control (cells without added energy source).

HL-60 cells = experiment: Effect of 10 mM citric acid on HL-60 energy utilization; conditions: for Effect of 10 mM Citric Acid on HL-60 Energy Utilization: negative control without energy sources and without citric acid
[2] = energy source 0.03 mM with 10 mM citric acid
[3] = energy source 0.10 mM with 10 mM citric acid
[4] = energy source 0.33 mM with 10 mM citric acid
[5] = energy source 1.00 mM with 10 mM citric acid
[6] = energy source 3.3 mM with 10 mM citric acid
[7] = energy source 10 mM with 10 mM citric acid
[8] = energy source 15 mM with 10 mM citric acid
[9] = energy source 20 mM with 10 mM citric acid

Structure (SMILES)	Effect of 10 mM Citric Acid on HL-60 Energy Utilization (HL-60 cells; [2])	Effect of 10 mM Citric Acid on HL-60 Energy Utilization (HL-60 cells; [3])	Effect of 10 mM Citric Acid on HL-60 Energy Utilization (HL-60 cells; [4])	Effect of 10 mM Citric Acid on HL-60 Energy Utilization (HL-60 cells; [5])	Effect of 10 mM Citric Acid on HL-60 Energy Utilization (HL-60 cells; [6])	Effect of 10 mM Citric Acid on HL-60 Energy Utilization (HL-60 cells; [7])	Effect of 10 mM Citric Acid on HL-60 Energy Utilization (HL-60 cells; [8])	Effect of 10 mM Citric Acid on HL-60 Energy Utilization (HL-60 cells; [9])	activity at 30 µM ([1]; Conc. 0.03 mM)	activity at 100 µM ([1]; Conc. 0.10 mM)	activity at 330 µM ([1]; Conc. 0.33 mM)	activity at 1000 µM ([1]; Conc. 1.00 mM)	activity at 3300 µM ([1]; Conc. 3.3 mM)	activity at 10000 µM ([1]; Conc. 10 mM)	activity at 15000 µM ([1]; Conc. 15 mM)	activity at 20000 µM ([1]; Conc. 20 mM)	activity at 30 µM (HepG2 cells; Conc. 0.03 mM)	activity at 100 µM (HepG2 cells; Conc. 0.10 mM)	activity at 330 µM (HepG2 cells; Conc. 0.33 mM)	activity at 1000 µM (HepG2 cells; Conc. 1.00 mM)	further results
O=C1O[C@@H]([C@H](O)CO)[C@H](O)[C@H]1O [D-gal acid g-lactone]	9.5 % of negative control	20.9 % of negative control	35.7 % of negative control	63.3 % of negative control	162.8 % of negative control	151.5 % of negative control	126.5 % of negative control	115.7 % of negative control	–	–	–	–	–	–	–	–	–	–	–	–	Energy Use by DMSO-Differentiated HL-60 Cells ([1]; Conc. 0.03 mM): 111.9 % of negative control; Energy Use by DMSO-Differentiated HL-60 Cells ([1]; Conc. 0.10 mM): 122.9 % of negative control; Energy Use by DMSO-Differentiated HL-60 Cells ([1]; Conc. 0.33 mM): 133.3 % of negative control; Energy Use by DMSO-Differentiated HL-60 Cells ([1]; Conc. 1.00 mM): 157.1 % of negative control; Energy Use by DMSO-Differentiated HL-60 Cells ([1]; Conc. 3.3 mM): 185.9 % of negative control; Energy Use by DMSO-Differentiated HL-60 Cells ([1]; Conc. 10 mM): 166.9 % of negative control; Energy Use by DMSO-Differentiated HL-60 Cells ([1]; Conc. 15 mM): 130.4 % of negative control; Energy Use by DMSO-Differentiated HL-60 Cells ([1]; Conc. 20 mM): 99.2 % of negative control; HepG2 Cells Responses After 72 hours in Culture and a 4 hour Color Development Period (HepG2 cells; Conc. 0.03 mM): 111.3 % of negative control; HepG2 Cells Responses After 72 hours in Culture and a 4 hour Color Development Period (HepG2 cells; Conc. 0.10 mM): 142.3 % of negative control; HepG2 Cells Responses After 72 hours in Culture and a 4 hour Color Development Period (HepG2 cells; Conc. 0.33 mM): 164.7 % of negative control; HepG2 Cells Responses After 72 hours in Culture and a 4 hour Color Development Period (HepG2 cells; Conc. 1.00 mM): 162.9 % of negative control; HepG2 Cells Responses After 72 hours in Culture and a 4 hour Color Development Period (HepG2 cells; Conc. 3.3 mM): 157.3 % of negative control; HepG2 Cells Responses After 72 hours in Culture and a 4 hour Color Development Period (HepG2 cells; Conc. 10 mM): 178.4 % of negative control; HepG2 Cells Responses After 72 hours in Culture and a 4 hour Color Development Period (HepG2 cells; Conc. 15 mM): 239.3 % of negative control; HepG2 Cells Responses After 72 hours in Culture and a 4 hour Color Development Period (HepG2 cells; Conc. 20 mM): 207.6 % of negative control
O=C[C@H](O)[C@@H](O)[C@@H](O)[C@H](O)C(=O)O [D-galacturonic acid]	1.4 % of negative control	12.8 % of negative control	43.5 % of negative control	61.8 % of negative control	141.6 % of negative control	177.0 % of negative control	136.3 % of negative control	110.8 % of negative control	118%	123%	138%	157%	168%	173%	126%	101%	124%	140%	171%	177%	activity at 3300 µM (HepG2 cells; Conc. 3.3 mM): 165%; activity at 10000 µM (HepG2 cells; Conc. 10 mM): 179%; activity at 15000 µM (HepG2 cells; Conc. 15 mM): 228%; activity at 20000 µM (HepG2 cells; Conc. 20 mM): 162%; cell activity in the presence of citric acid, in words (HL-60 cells; 10 mM citric acid): acitivity; also recorded: capable of overcoming the antiproliferative effects of citric acid
N[C@@H](Cc1c[nH]cn1)C(=O)O [L-histidine]	–	–	–	–	–	–	–	–	119%	123%	128%	157%	172%	171%	140%	114%	125%	142%	173%	148%	activity at 3300 µM (HepG2 cells; Conc. 3.3 mM): 180%; activity at 10000 µM (HepG2 cells; Conc. 10 mM): 210%; activity at 15000 µM (HepG2 cells; Conc. 15 mM): 195%; activity at 20000 µM (HepG2 cells; Conc. 20 mM): 72.1%
